Results as given in ChEMBL document CHEMBL1201862, “PubChem BioAssay data set” (2004).
Activity calls are given as the source filed them.

Key:
[1] = fluconazole-exposed Candida albicans growth modulators – fluorescence, retest, confirmation (AID 2467); type: functional, cell-based
[2] = biological target: T1, Serine/threonine-protein phosphatase (Candida dubliniensis (strain CD36 / CBS 7987 / NCPF 3949 / NRRLY-17841) (Yeast), UniProt B9W6M3); assay: blockers of CaCl2-induced CDRE-lacZ signaling – S. cerevisiae, luminescence, secondary, dose response (AID 2388); type: functional, cell-based;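 further: yeast reporter cells carrying a calcineurin-responsive lacZ construct stimulated with calcium chloride; luminescent beta-galactosidase reporter signal in whole cells rather than isolated phosphatase activity; potency for inhibition where a drop in reporter signal means calcineurin blockade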
T1 sequence (B9W6M3 whole entry): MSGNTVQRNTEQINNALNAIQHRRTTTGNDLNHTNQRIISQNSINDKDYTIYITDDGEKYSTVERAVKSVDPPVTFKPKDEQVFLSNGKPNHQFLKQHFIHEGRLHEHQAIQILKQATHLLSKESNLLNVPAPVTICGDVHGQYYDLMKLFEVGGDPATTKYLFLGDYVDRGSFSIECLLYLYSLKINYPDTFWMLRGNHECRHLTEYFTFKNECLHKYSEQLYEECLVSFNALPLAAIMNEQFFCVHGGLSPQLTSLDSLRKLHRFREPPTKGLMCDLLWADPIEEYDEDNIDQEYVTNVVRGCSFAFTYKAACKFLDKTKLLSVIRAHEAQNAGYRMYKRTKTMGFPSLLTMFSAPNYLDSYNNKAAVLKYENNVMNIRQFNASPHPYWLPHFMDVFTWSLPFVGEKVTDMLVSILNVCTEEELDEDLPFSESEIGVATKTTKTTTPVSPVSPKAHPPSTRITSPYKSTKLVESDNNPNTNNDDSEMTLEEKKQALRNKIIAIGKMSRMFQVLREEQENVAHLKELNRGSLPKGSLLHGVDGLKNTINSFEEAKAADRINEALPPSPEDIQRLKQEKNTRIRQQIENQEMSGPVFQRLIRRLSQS

[3] = NIH-3T3 fibroblast cytotoxicity, dose response, cytotoxicity control, cell-based, fluorescence, Alamar Blue, secondary assay (AID 2327); type: functional;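 further: NIH-3T3 mouse fibroblasts cultured with fluconazole at 8 µg/mL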
[4] = biological target: T2, Corticotropin-releasing factor receptor 2/Corticotropin-releasing factor-binding protein (Homo sapiens, UniProt P24387+Q13324); assay: activators of CRF receptor 2 with binding protein – uHTS hits, confirmation (AID 602473); type: functional; conditions: read-out: EC50_Mean
T2 sequence (Q13324 whole entry): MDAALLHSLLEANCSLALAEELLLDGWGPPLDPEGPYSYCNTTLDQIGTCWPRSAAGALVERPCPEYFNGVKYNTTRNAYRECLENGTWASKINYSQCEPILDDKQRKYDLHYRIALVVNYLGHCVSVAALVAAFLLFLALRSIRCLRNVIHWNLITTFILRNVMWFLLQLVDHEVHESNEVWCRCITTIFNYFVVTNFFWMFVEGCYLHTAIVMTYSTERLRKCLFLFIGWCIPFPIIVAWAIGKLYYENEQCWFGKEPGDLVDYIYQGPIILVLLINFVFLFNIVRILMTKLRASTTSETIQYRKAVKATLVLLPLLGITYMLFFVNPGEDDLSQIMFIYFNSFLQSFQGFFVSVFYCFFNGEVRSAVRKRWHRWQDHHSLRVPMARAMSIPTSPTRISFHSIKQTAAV
T2 sequence (P24387 whole entry): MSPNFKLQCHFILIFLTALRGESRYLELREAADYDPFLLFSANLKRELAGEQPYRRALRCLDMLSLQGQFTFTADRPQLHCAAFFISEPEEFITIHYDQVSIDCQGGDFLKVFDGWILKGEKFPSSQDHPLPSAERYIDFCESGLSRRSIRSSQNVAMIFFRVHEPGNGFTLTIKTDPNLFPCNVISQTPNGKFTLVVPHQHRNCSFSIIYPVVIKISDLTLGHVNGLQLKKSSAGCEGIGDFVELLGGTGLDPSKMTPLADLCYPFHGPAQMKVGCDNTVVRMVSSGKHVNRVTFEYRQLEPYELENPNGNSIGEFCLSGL

[5] = biological target: ATP-dependent molecular chaperone HSP82 (Candida albicans (strain WO-1) (Yeast), UniProt C4YTQ8); assay: steroid-induced GRE reporter decrease in yeast – S. cerevisiae, luminescence, Hsp90 inhibitor project, dose response (AID 2400); type: functional, cell-based;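 further: beta-galactosidase luminescence from glucocorticoid response element reporter as proxy for Hsp90 function; inhibitor potency where signal loss means Hsp90 inhibition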
ATP-dependent molecular chaperone HSP82, sequence (C4YTQ8 whole entry): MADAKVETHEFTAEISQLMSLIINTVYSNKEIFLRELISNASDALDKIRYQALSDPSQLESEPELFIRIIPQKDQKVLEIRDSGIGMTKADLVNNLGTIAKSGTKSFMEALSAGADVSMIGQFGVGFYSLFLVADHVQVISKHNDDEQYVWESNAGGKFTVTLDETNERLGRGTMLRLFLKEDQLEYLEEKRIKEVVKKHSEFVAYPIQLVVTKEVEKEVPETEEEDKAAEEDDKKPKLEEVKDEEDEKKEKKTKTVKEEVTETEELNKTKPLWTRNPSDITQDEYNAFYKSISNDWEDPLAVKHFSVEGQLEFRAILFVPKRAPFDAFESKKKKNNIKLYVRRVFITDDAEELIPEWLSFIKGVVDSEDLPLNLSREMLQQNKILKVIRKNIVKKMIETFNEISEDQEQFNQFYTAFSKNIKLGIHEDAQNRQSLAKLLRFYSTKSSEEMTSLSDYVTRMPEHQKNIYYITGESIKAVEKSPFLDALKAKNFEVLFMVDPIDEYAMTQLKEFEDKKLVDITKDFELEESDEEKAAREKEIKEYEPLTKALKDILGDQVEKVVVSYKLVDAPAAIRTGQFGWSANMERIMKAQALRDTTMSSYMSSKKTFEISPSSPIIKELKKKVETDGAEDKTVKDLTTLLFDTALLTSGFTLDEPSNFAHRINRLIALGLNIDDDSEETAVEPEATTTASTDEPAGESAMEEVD

[6] = biological target: T3, Low molecular weight phosphotyrosine protein phosphatase (Homo sapiens, UniProt P24666); type: functional; conditions: read-out: IC50_Mean;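 further: Dose-response confirmation assay measuring inhibition of LMPTP enzyme activity by fluorescence intensity read-out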
T3 sequence (P24666 whole entry): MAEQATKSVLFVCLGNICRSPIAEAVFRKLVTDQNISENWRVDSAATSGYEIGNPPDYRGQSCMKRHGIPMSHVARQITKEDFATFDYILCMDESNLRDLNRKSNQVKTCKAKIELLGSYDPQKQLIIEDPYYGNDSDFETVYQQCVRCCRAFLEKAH

[7] = biological target: T4, Small ubiquitin-related modifier 1 (Homo sapiens, UniProt P63165); assay: SUMO1 protein interaction blockers, potency – biochemical, fluorescence polarization, uHTS hits, dose response (AID 624382); type: functional; conditions: read-out: IC50_Mean
T4 sequence (P63165 whole entry): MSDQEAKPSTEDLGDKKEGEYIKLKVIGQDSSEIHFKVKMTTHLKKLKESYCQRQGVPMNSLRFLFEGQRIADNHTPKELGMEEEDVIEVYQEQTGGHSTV

[8] = biological target: 72 kDa type IV collagenase (Homo sapiens, UniProt P08253); assay: Dose Response validation of uHTS RPN11 inhibitor hits using a MMP-2 Fluorescence assay.; type: functional
72 kDa type IV collagenase, sequence (P08253 whole entry): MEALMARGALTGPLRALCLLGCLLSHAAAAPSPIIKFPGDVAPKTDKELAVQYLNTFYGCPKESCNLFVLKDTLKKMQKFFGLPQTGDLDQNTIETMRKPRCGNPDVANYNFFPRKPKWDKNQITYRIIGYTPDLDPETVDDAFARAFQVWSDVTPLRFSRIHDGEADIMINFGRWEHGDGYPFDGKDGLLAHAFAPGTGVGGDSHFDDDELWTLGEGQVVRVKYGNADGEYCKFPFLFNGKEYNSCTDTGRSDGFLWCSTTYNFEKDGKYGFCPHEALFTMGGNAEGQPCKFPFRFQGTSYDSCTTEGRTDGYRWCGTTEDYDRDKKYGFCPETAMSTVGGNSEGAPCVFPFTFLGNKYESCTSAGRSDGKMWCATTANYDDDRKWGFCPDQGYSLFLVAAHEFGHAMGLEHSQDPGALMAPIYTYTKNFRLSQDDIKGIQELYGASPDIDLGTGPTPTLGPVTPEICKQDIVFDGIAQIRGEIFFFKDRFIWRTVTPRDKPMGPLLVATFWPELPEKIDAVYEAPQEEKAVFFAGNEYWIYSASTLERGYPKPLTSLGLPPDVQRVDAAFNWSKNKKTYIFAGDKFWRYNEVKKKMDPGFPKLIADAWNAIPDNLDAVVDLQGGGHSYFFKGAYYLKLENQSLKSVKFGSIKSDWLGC

Prothrombin = Prothrombin (Bos taurus, UniProt P00735); assay: thrombin protease inhibitors – biochemical, fluorescence polarization, uHTS hits, dose response (AID 602369); type: functional
H9c2 = assay: cells; type: functional, cell-based; conditions: Rattus norvegicus, H9c2, Myocardium;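 further: confirmatory concentration-response retest of ultra-high-throughput screening hits for modulation of myocardial damage; cell death induced by hydrogen peroxide oxidative stress; compound pretreatment for 60 min then peroxide exposure for 2 h; potency is for protecting the cells against peroxide damage rather than for killing them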
[9] = biological target: 26S proteasome non-ATPase regulatory subunit 14 (Homo sapiens, UniProt O00487); assay: inhibition of proteasome subunit RPN11 – biochemical, fluorescence polarization, uHTS hits, confirmation (AID 602368); type: functional
26S proteasome non-ATPase regulatory subunit 14, sequence (O00487 whole entry): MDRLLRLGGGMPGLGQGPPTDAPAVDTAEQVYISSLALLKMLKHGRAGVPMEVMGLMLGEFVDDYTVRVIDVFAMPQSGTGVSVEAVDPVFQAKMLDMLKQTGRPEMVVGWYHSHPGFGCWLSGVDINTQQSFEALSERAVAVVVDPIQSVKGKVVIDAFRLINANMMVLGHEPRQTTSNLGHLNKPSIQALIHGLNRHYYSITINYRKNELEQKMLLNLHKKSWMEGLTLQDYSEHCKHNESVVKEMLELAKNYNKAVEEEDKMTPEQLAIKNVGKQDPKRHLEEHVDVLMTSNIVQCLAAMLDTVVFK

[10] = biological target: T4, Small ubiquitin-related modifier 1; assay: SUMO1 protein-protein binding blockers, potency – biochemical, FRET, dose response (AID 624383); type: functional; conditions: read-out: IC50_Mean
[11] = biological target: T5, Apoptotic protease-activating factor 1 (Homo sapiens, UniProt O14727); assay: SAR analysis of small molecule Activators of Apaf-1 in a Fluorescent assay.; type: functional; conditions: read-out: EC50_Mean;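 further: caspase-3 cleavage of fluorogenic Rh110 DEVD substrate downstream of apoptosome activation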
T5 sequence (O14727 whole entry): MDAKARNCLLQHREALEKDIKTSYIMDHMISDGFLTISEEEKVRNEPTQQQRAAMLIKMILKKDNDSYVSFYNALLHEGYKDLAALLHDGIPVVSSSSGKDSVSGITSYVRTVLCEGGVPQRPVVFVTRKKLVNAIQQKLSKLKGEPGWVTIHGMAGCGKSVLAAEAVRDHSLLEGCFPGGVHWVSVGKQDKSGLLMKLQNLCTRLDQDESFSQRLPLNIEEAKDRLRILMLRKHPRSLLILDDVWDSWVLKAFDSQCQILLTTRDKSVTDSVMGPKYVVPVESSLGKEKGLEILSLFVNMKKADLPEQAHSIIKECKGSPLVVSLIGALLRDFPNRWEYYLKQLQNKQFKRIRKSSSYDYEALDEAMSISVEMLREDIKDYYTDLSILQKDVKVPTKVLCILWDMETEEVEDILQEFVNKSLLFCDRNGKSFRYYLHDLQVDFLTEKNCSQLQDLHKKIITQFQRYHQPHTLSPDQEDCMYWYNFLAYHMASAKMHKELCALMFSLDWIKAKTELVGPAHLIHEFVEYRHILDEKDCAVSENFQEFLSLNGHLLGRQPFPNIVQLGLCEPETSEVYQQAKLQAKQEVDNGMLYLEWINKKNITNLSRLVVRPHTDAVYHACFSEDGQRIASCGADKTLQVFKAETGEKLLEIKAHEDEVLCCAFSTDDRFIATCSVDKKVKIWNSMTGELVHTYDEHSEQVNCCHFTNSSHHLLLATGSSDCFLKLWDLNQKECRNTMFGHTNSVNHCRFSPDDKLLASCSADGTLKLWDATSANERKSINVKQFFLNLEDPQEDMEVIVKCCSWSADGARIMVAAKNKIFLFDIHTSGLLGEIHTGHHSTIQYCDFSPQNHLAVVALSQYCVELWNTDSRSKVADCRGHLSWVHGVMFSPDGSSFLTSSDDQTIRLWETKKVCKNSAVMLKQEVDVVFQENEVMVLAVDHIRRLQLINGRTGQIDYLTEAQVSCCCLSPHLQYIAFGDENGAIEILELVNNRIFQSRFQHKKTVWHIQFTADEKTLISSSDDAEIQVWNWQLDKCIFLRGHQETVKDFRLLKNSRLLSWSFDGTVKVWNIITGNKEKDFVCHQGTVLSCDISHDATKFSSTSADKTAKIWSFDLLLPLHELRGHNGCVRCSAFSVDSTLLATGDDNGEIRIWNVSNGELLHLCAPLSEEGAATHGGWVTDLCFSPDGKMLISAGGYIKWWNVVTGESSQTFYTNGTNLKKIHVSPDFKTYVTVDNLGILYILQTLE

[12] = viability loss in CEM21 cells – cell-based, CellTiter-Glo luminescence, cherry-picked, cytotoxicity control for viral fusion inhibitor project, dose response (AID 652042); type: functional;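 further: potency for signal decrease meaning cytotoxicity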
[13] = blockers of HIV-1 envelope-mediated cell-cell fusion – cherry-pick, dose response (AID 652057); type: functional, cell-based
[14] = HIV-1 AD8 envelope cell-cell fusion blockers – cherry-pick, dose response (AID 652062); type: functional, cell-based;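 further: luciferase signal from cell-cell fusion driven by HIV-1 clade B AD8 Env; potency is for inhibitors of fusion seen as a drop in luminescence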
[15] = off-target signal loss in HeLa-CEM21 co-culture – HeLa F-luc CTL cells, cherry-picked, counter-screen for HIV-1 Env fusion inhibitor project, dose response (AID 652040); type: functional, cell-based;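 further: potency for signal decrease marking cytotoxic or nonspecific inhibition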
[16] = blockers of HIV-1 ZM109 envelope-driven cell-cell fusion – HeLa effector, CEM target cells, luciferase, cherry-pick, dose response (AID 652058); type: functional, cell-based;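 further: luciferase signal from HIV-1 Env mediated cell-cell fusion of effector and target cells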
Streptococcus = assay: GAS UMAA2166 growth inhibition – luminescence, BacTiterGlo, counter-screen for streptokinase expression inhibitor project, dose response (AID 1915); type: functional, organism-based;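 further: potency for reduction of bacterial viability or growth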
Streptokinase A = biological target: T6, Streptokinase A (Streptococcus pyogenes serotype M1, UniProt P10520); assay: viability-normalized secreted streptokinase activity reduction – plasminogen activation absorbance, OD405, dose response (AID 1914); type: functional, Streptococcus pyogenes M1 GAS;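 further: secreted streptokinase activity via plasminogen activation per viability signal from cell pellet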
T6 sequence (P10520 whole entry): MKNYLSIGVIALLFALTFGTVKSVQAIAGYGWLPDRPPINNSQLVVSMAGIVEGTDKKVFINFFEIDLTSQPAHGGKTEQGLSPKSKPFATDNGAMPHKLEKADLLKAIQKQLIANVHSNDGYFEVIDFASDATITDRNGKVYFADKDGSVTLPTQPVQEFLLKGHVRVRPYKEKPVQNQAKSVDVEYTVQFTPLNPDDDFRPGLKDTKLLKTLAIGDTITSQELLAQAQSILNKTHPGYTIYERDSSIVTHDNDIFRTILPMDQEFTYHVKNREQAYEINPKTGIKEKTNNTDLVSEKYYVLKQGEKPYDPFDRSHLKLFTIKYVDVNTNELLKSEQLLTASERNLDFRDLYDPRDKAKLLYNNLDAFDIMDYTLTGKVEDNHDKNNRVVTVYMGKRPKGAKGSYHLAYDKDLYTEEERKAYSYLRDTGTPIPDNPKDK

[17] = system: Streptococcus sp. 'group A'; assay: Streptococcus pyogenes SK(-)GAS viability under kanamycin – luminescence, BacTiterGlo, confirmation, counter-screen for streptokinase expression inhibitor project, dose response (AID 1900); type: functional, organism-based
cells [18] = type: functional, cell-based
cells [19] = type: functional, cell-based; remark: listed apart in the source
[20] = biological target: T7, Sentrin-specific protease 8 (Homo sapiens, UniProt Q96LD8); type: functional
T7 sequence (Q96LD8 whole entry): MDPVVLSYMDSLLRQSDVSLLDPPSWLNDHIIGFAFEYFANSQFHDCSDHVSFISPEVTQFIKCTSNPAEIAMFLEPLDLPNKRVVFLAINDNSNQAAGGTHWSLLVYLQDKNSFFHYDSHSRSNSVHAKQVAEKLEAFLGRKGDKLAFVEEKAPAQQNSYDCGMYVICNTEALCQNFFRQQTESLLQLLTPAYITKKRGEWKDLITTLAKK

[21] = biological target: T7, Sentrin-specific protease 8; type: functional; remark: listed apart in the source
[22] = general cell-killing toxicity readout – plate reader, dry powder samples, cytotoxicity control for PAX8 inhibitor project, dose response (AID 743021); type: functional, cell-based

SMILES: CCOC(=O)Cc1csc(NC(=O)CSc2nnc(-c3ccncc3)o2)n1
- EC50 [1]: 0.517 µM (active)
- EC50 [2]: > 180 µM (inactive)
- EC50 [3]: > 150 µM (inactive)
- EC50 [4]: > 53 µM (inactive)
- EC50 [5]: > 150 µM (inactive)

SMILES: O=C(NCCN1CCCC1)c1ccc(Cn2c(=S)[nH]c3cc4c(cc3c2=O)OCO4)cc1
- IC50 [6]: 27.2 µM (inactive)

SMILES: COc1cc(/C=N/NC(=O)c2cccnc2)ccc1OCC(=O)Nc1ccccc1Cl
- IC50 [7]: > 66.6 µM (inactive)
- IC50 [8]: > 100 µM (inactive)
- IC50 (Prothrombin): > 100 µM (inactive)
- IC50 (H9c2): > 79 µM (inactive)
- IC50 [9]: 47 µM (active)
- IC50 [10]: 100 µM (inactive)

SMILES: COC(=O)c1coc(-c2cnc(OC)nc2)n1
- EC50 [11]: > 100 µM (inactive)

SMILES: O=C(c1cccc(C(F)(F)F)c1)N1CCc2c([nH]c3ccccc23)C1C(F)(F)F (stereo unspecified)
- AC50 [12]: 50.8 µM (active)
- AC50 [13]: 5.55 µM (active)
- AC50 [14]: 1.19 µM (active)
- AC50 [15]: 1.88 µM (active)
- AC50 [16]: 0.66 µM (active)

SMILES: CCOC(=O)C1(C)Oc2ccccc2NC1=O (stereo unspecified)
- EC50 [11]: > 100 µM (inactive)

SMILES: O=C(Nc1nnc(-c2ccncc2)o1)c1ccc2ccccc2c1
- EC50 [1]: 1.47 µM (active)
- EC50 (Streptococcus): 19.5 µM (active)
- EC50 [2]: > 180 µM (inactive)
- EC50 (Streptokinase A): > 150 µM (not active)
- EC50 [3]: > 150 µM (inactive)
- EC50 [5]: > 150 µM (inactive)
- EC50 [17]: 6.52 µM (active)

SMILES: O=C(c1nc2ccccn2c1CNCC1OCCc2ccccc21)N1CCOCC1 (stereo unspecified)
- EC50 (cells [18]): > 29.9 µM (inactive)
- IC50 (cells [19]): > 29.9 µM (inactive)

SMILES: CC(=O)Nc1ccc(NC(=O)COC(=O)c2ccc([N+](=O)[O-])o2)cc1
- IC50 [20]: 11.8 µM (active)
- IC50 [21]: 7.03 µM (active)

SMILES: C[C@@H]1CCCCO[C@H](CN(C)C)[C@H](C)CN([C@@H](C)CO)C(=O)c2cc(NS(=O)(=O)c3ccc(Cl)cc3)ccc2O1
- AC50 [22]: 1.71 µM (active)

SMILES: COC(=O)[C@]12C[C@H](CC(=O)NCc3ccc(C)o3)C(=O)N(CCC3=CCCCC3)C1=C[C@H](C(C)(C)C)O[C@@H]2C
- AC50 [12]: 20.3 µM (active)
- AC50 [13]: 1.28 µM (active)
- AC50 [14]: 2.73 µM (active)
- AC50 [15]: 1.71 µM (active)
- AC50 [16]: < 0.26 µM (active)
